Results reported in patent US4610981A, “N-[(1H-imidazol-1-yl) and (1H-1,2,4-triazol-1-yl)-alkyl]benzenesulfonamides and thromboxane synthetase/antihypertensive compositions” (priority 1985, dated 1986).
Where a name gives a salt, the structure may show the parent alone. Read-outs that look alike come from different tables or passages of the source.

Key:
[1] = Hypotensive activity in spontaneously hypertensive rats, mean arterial blood pressure (Chan and Poorvin); format: in vivo, spontaneously hypertensive rats of the Okamoto strain; settings: oral gavage, 100 mg/kg or less, two doses 24 hours apart, measured 28 hours after initial dose; average MABP of rats used 160±1.5 mm Hg
Method: The novel compounds of the present invention also are active antihypertensive agents and were tested for hypotensive activity by the method of P. S. Chan and D. Poorvin, Clinical and Experimental Hypertension, 1(6), 817-830 (1979). Male, 16 week old, spontaneously hypertensive rats of the Okamoto strain, from Taconic Farms, Germantown, N.Y., having an average mean arterial blood pressure of 160±1.5 mm of mercury are used in the test. One to three rats are used per test compound. A rat is dosed by gavage with a test compound, suspended in 2% pre-boiled starch at a concentration of 50 mg/ml, at a dose of 100 mg/kg of body weight or less, with 0.9% sodium chloride loading at a dose of 25 ml/kg of body weight. A second identical dose of the test compound, without sodium chloride loading, is given 24 hours later. At 28 hours after the initial dose the mean arterial blood pressure is measured by the method of Chan and Poorvin, vide supra. The procedure is repeated in a second and third rat when necessary.

thromboxane synthetase = target: T1, thromboxane synthetase (Rattus norvegicus, UniProt P49430); test: Inhibition of thromboxane (TXA2) formation in SHR platelets, TXB2 measured by radioimmunoassay; format: cell-based, Okamoto-Aoki spontaneously hypertensive rats (SHR); settings: read-out: % Inhibition (of TXB2 formation)
T1 construct: The platelets were isolated by centrifuging the PRP for 10 minutes; endogenous in cells; host or cells: washed platelets from arterial blood of Okamoto-Aoki spontaneously hypertensive rats (animals from Taconic Farms)
T1 sequence (P49430 1-533): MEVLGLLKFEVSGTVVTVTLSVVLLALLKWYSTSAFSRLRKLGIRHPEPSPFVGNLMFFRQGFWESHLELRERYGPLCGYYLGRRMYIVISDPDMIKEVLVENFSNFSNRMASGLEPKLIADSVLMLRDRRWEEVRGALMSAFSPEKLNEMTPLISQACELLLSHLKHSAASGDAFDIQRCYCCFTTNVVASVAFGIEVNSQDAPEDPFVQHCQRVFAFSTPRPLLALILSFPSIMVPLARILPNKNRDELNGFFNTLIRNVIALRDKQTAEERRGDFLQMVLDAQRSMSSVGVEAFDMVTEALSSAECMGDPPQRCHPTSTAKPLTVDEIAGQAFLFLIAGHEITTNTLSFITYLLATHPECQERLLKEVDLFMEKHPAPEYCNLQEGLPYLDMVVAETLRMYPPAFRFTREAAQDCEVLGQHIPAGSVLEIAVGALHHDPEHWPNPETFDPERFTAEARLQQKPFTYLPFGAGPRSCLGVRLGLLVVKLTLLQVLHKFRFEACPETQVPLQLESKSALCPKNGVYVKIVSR
Method: The inhibition of thromboxane (TXA2) formation was studied by determining the concentration of thromboxane B2 (TXB2), the stable hydrolysis product of TXA2. […] The blood was diluted with 3 ml cold saline and centrifuged at room temperature for 15 minutes at 460×g. The platelet rich plasma (PRP) was separated. The platelets were isolated by centrifuging the PRP for 10 minutes at 1060×g and were washed in 4 ml cold oxygenated Krebs phosphate buffer, pH 7.4. The chilled platelets recovered from centrifuging at 800×g for 10 minutes were resuspended in oxygenated Krebs phosphate buffer and diluted to contain 4.5-6.0×10^4 platelets/μl. Assay samples, prepared on ice, contained 200 μl platelet suspension, 50 μl saline, and 50 μl vehicle or drug under study. The samples were incubated for 10 minutes at 37° C. in a metabolic shaker. The reaction was terminated by immersing the tubes in an ice bath and adding 50 μl of 0.5M citric acid. The samples were centrifuged for 10 minutes in a refrigerated centrifuge and the supernatants thus obtained were decanted and stored at -20° C.

[2] = canines; J. Cardiovascular Pharmacology, 4, 129 (1982); cited from earlier work
[3] = guinea pigs; literature; cited from earlier work
[4] = rabbits; literature; cited from earlier work
[5] = dose 10^-4 M, SHR washed platelets, 10 minutes at 37° C.

Row | Structure (SMILES) | inhibition at 100 µM (thromboxane synthetase; [5]) [%] | MABP in mm Hg [1] [mm Hg] | further results
1 | O=S(=O)(NCCCCCn1ccnc1)c1ccc(Cl)cc1 [4-Chloro-N-[5-(1H-imidazol-1-yl)pentyl]benzenesulfonamide] | – | 119 | –
2 | O=S(=O)(NCCn1ccnc1)c1ccc(Br)cc1 [4-Bromo-N-[2-(1H-imidazol-1-yl)ethyl]benzenesulfonamide] | – | 125 | –
3 | O=S(=O)(NCCCCn1ccnc1)c1ccccc1 [N-[4-(1H-Imidazol-1-yl)butyl]benzenesulfonamide] | 93 | – | –
4 | O=S(=O)(NCCCn1ccnc1)c1ccc(Br)cc1 [4-Bromo-N-[3-(1H-imidazol-1-yl)propyl]benzenesulfonamide] | – | 126 | inhibition at 100 µM (thromboxane synthetase): 100%
5 | O=S(=O)(NCCCn1cncn1)c1ccccc1 [N-[3-(1H-1,2,4-Triazol-1-yl)propyl]benzenesulfonamide] | 67 | – | –
6 | O=S(=O)(NCCCn1cncn1)c1ccc(Cl)cc1 [4-Chloro-N-[3-(1H-1,2,4-triazol-1-yl)propyl]benzenesulfonamide] | – | 127 | –
7 | CCCCC[C@H](O)/C=C/[C@@H]1[C@H]2C/C(=C/CCCC(=O)O)O[C@H]2C[C@H]1O [PGI2] | – | – | effect on ischemic myocardium (in words) [2]: beneficial effects
8 | O=S(=O)(NCCc1cccnc1)c1ccc(Cl)cc1 [4-Chloro-N-[2-(3-pyridyl)ethyl]benzenesulfonamide] | 90 | 109 | –
9 | CCCCCC(O)/C=C/C1OC2CC(O2)C1C/C=C\CCCC(=O)O (centres unmarked) [TXA2] | – | – | effect of injection into coronary arteries (in words) [3]: causes myocardial ischemia and subendocardial necrosis; effect of injection into coronary arteries (in words) [4]: causes myocardial ischemia and subendocardial necrosis

Continued, in another order:

Row | inhibition at 100 µM (thromboxane synthetase; [5]) [%] | Structure (SMILES) | MABP in mm Hg [1] [mm Hg] | further results
10 | 91 | O=S(=O)(NCCCCn1ccnc1)c1ccc(Br)cc1 [4-Bromo-N-[4-(1H-imidazol-1-yl)butyl]benzenesulfonamide] | – | –
11 | 97 | COc1ccc(S(=O)(=O)NCCCCn2ccnc2)cc1 [N-[4-(1H-imidazol-1-yl)butyl]-4-methoxybenzenesulfonamide] | 134 | –
12 | 94 | O=S(=O)(NCCCCn1ccnc1)c1ccc(Cl)cc1 [4-Chloro-N-[4-(1H-imidazol-1-yl)butyl]benzenesulfonamide] | – | –
13 | 100 | COc1ccc(S(=O)(=O)NCCCn2ccnc2)cc1 [N-[3-(1H-Imidazol-1-yl)propyl]-4-methoxybenzenesulfonamide] | – | –
14 | 97 | O=S(=O)(NCCCCCn1ccnc1)c1ccc(Cl)cc1 [4-Chloro-N-[5-(1H-imidazol-1-yl)pentyl]benzenesulfonamide hydrochloride] | – | –
15 | 73 | CC(=O)Nc1ccc(S(=O)(=O)NCCCn2ccnc2)cc1 [N-[4-[[[3-(1H-Imidazol-1-yl)propyl]amino]sulfonyl]phenyl]acetamide] | 131 | –
16 | 99 | O=S(=O)(NCCCn1ccnc1)c1ccc(Cl)cc1 [4-Chloro-N-[3-(1H-imidazol-1-yl)propyl]benzenesulfonamide] | 120 | –
17 | 100 | CC(=O)Nc1ccc(S(=O)(=O)NCCCCn2ccnc2)cc1 [N-[4-[[[4-(1H-imidazol-1-yl)butyl]amino]sulfonyl]phenyl]acetamide] | 116 | –
18 | 93 | O=S(=O)(NCCCCCCCCn1ccnc1)c1ccc(Cl)cc1 [4-Chloro-N-[8-(1H-imidazol-1-yl)octyl]benzenesulfonamide] | 132 | –
